Laboratory results reported in patent US9540391B2, “Isomannide derivatives as inhibitors of soluble epoxide hydrolase” (SANOFI, priority 2013, dated 2017).
Counter-ions that a name gives are not always drawn.

Molecular target: T1, recombinant sEH (Homo sapiens, UniProt P34913)
T1 construct: made in house; host or cells: Sf9 insect cells
T1 sequence (P34913 1-555): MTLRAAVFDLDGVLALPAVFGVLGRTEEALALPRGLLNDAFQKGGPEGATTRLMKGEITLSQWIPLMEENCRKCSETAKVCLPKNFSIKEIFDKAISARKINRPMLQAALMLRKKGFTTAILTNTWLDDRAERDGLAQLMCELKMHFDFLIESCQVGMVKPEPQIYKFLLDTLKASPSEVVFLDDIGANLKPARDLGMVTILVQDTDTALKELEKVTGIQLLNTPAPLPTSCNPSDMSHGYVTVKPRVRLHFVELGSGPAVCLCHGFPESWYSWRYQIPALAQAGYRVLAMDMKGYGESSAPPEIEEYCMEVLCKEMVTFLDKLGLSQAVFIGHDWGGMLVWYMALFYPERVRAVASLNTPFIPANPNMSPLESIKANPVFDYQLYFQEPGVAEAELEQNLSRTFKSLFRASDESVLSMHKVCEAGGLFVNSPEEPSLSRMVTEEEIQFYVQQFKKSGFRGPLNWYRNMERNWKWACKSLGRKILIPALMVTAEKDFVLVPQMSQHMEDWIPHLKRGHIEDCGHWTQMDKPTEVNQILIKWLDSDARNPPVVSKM
Assay: biochemical screening assay for inhibition of soluble epoxide hydrolase (fluorometric, Phome substrate)
In short: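 Human sEH from Sf9 cells (2 nM final) was pre-incubated 15 min at 30 °C with compound (0.0001–10 μM), then reacted 60 min at 30 °C with 5 μM Phome in 25 mM Hepes/0.01% albumin. Fluorescence of released 6-methoxy-2-naphthaldehyde was read before substrate and at end; IC50 from % inhibition.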

IC50 [nM]	Structure (SMILES)
1	Cc1ncccc1O[C@H]1CO[C@H]2[C@@H]1OC[C@@H]2NC(=O)NCc1ccccc1OC(F)F [Example 188, 1-(2-Difluoromethoxy-benzyl)-3-[(3S,3aR,6S,6aS)-6-(2-methyl-pyridin-3-yloxy)-hexahydro-furo[3,2-b]furan-3-yl]-urea]
694	Cc1cccc(NC(=O)NC2COC3C(C#N)COC23)c1 (centres unmarked) [Example 383]
2	O=C(NC1CCCCC1)N[C@H]1CO[C@H]2[C@@H]1OC[C@@H]2Oc1cccc(N2CCCCC2)c1 [Example 75, 1-cyclohexyl-3-[(3S,3aR,6S,6aS)-6-(3-piperidin-1-yl-phenoxy)-hexahydro-furo[3,2-b]furan-3-yl]-urea]
56	Cc1ncccc1OC1COC2C(NC(=O)NC3C4(C)CCC(C4)C3(C)C)COC12 [Example 195, 1-[(2R,3aS,5S,6S)-6-(2-Methyl-pyridin-3-yloxy)-hexahydro-furo[3,2-b]furan-3-yl]-3-((1S,4R)-1,3,3-tri-methyl-bicyclo[2.2.1]hept-2-yl)-urea]
2	CCC(OC)(c1cccc(O[C@H]2CO[C@H]3[C@@H]2OC[C@@H]3NC(=O)NC2CCCCC2)c1)c1nccs1 (stereo partly drawn) [Example 122, 1-Cyclohexyl-3-{(3S,3aR,6S,6aS)-6-[3-(1-methoxy-1-thiazol-2-yl-propyl)-phenoxy]-hexahydro-furo[3,2-b]furan-3-yl}-urea]
1	Cc1ncccc1O[C@H]1CO[C@H]2[C@@H]1OC[C@@H]2NC(=O)N[C@H]1CC[C@@H](C)CC1 [Example 272, 1-(cis-4-Methyl-cyclohexyl)-3-[(3S,3aR,6S,6aS)-6-(2-methyl-pyridin-3-yloxy)-hexahydro-furo[3,2-b]furan-3-yl]-urea]
2940	O=C(O)CC[C@H]1CO[C@H]2[C@@H]1OC[C@@H]2NC(=O)NC1CCCCC1 [Example 377, 3-[(3S,3aR,6S,6aR)-6-(3-cyclohexyl-ureido)-hexahydro-furo[3,2-b]furan-3-yl]-propionic acid]
38	COc1cccc([C@@H](C)NC(=O)N[C@H]2CO[C@H]3[C@@H]2OC[C@@H]3Oc2ccc(F)cc2)c1 [Example 155, 1-[(3S,3aR,6S,6aS)-6-(4-Fluoro-phenoxy)-hexahydro-furo[3,2-b]furan-3-yl]-3-[(R)-1-(3-methoxy-phenyl)-ethyl]-urea]
< 1	Cc1ncccc1O[C@H]1CO[C@H]2[C@@H]1OC[C@@H]2NC(=O)NCc1ccccc1OC(F)(F)F [Example 179, 1-[(3S,3aR,6S,6aS)-6-(2-Methyl-pyridin-3-yloxy)-hexahydro-furo[3,2-b]furan-3-yl]-3-(2-trifluoromethoxy-benzyl)-urea]
5	O=C(NC1CCCCC1)N[C@H]1CO[C@H]2[C@@H]1OC[C@@H]2S(=O)(=O)C1CCCCC1 [Example 74, 1-((3S,3aR,6S,6aS)-6-cyclohexanesulfonyl-hexahydro-furo[3,2-b]furan-3-yl)-3-cyclohexyl-urea]
14500	NC[C@H]1CO[C@H]2[C@@H]1OC[C@@H]2NC(=O)NC1CCCCC1 [Example 8, 1-((3S,3aR,6S,6aR)-6-aminomethyl-hexahydro-furo[3,2-b]furan-3-yl)-3-cyclohexyl-urea; trifluoroacetate]
665	COc1cc(NC(=O)NC2COC3C(C=Cc4ccsc4)COC23)cc(OC)c1 [Example 335, 1-(3,5-Dimethoxy-phenyl)-3-[(3S,3aR,-6S,6aR)-6-((Z)-2-thiophen-3-yl-vinyl)-hexahydro-furo[3,2-b]furan-3-yl]-urea]
20	O=C(NC1CCCCC1)N[C@H]1CO[C@H]2[C@@H]1OC[C@@H]2Oc1ccccc1C(=O)N1CCOCC1 [Example 134, 1-Cyclohexyl-3-{(3S,3aR,6S,6aS)-6-[2-(morpholine-4-carbonyl)-phenoxy]-hexahydro-furo[3,2-b]furan-3-yl}-urea]
< 1	CCN(CC)c1ccc(O[C@H]2CO[C@H]3[C@@H]2OC[C@@H]3NC(=O)NC2CCCCC2)cn1 [Example 72, 1-Cyclohexyl-3-[(3S,3aR,6S,6aS)-6-(6-diethylamino-pyridin-3-yloxy)-hexa-hydro-furo[3,2-b]furan-3-yl]-urea]
304	CCCCOc1ccc(NC(=O)NC2COC3C(C#N)COC23)cc1 (centres unmarked) [Example 380]
12	O=C(NC1CCCCC1)N[C@H]1CO[C@H]2[C@@H]1OC[C@@H]2Oc1ccccn1 [Example 3, 1-cyclohexyl-3-[(3S,3aR,6S,6aS)-6-(pyridin-2-yloxy)-hexahydro-furo[3,2-b]furan-3-yl]-urea]

IC50 [nM]	Structure (SMILES)
25	O=C(NC1CCCCC1)N[C@H]1CO[C@H]2[C@@H]1OC[C@@H]2SCC(F)(F)F [Example 45, 1-Cyclohexyl-3-[(3S,3aR,6S,6aS)-6-(2,2,2-trifluoro-ethylsulfanyl)-hexa-hydro-furo[3,2-b]furan-3-yl]-urea]
6	Cc1ncccc1O[C@H]1CO[C@H]2[C@@H]1OC[C@@H]2NC(=O)NC1CCC(c2ccccc2)CC1 (stereo partly drawn) [Example 264, 1-[(3S,3aR,6S,6aS)-6-(2-Methyl-pyridin-3-yloxy)-hexahydro-furo[3,2-b]furan-3-yl]-3-(4-phenyl-cyclohexyl)-urea]
22	O=C(Nc1ccc(Cl)c(Cl)c1)NC1COC2C(CCc3ccccc3)COC12 [Example 358, 1-(3,4-Dichloro-phenyl)-3-[(3S,3aR,6R)-6-((S)-phenethyl)-hexahydro-furo[3,2-b]furan-3-yl]-urea]
528	Cc1cccnc1CCNC(=O)N[C@H]1CO[C@H]2[C@@H]1OC[C@@H]2Oc1cccnc1C [Example 205, 1-[2-(3-Methyl-pyridin-2-yl)-ethyl]-3-[(3S,3aR,6S,6aS)-6-(2-methyl-pyridin-3-yloxy)-hexahydro-furo[3,2-b]furan-3-yl]-urea]
< 1	Cc1cc(C)c(S[C@H]2CO[C@H]3[C@@H]2OC[C@@H]3NC(=O)NC2CCCCC2)cn1 [Example 53, 1-Cyclohexyl-3-[(3S,3aR,6S,6aS)-6-(4,6-dimethyl-pyridin-3-ylsulfanyl)-hexahydro-furo[3,2-b]furan-3-yl]-urea]
5	O=C(NC1CCCCC1)N[C@H]1CO[C@H]2[C@@H]1OC[C@@H]2Oc1cccc(-c2ccccc2)c1 [Example 104, 1-[(3S,3aR,6S,6aS)-6-(Biphenyl-3-yloxy)-hexahydro-furo[3,2-b]furan-3-yl]-3-cyclohexyl-urea]
11	N#Cc1ncccc1O[C@H]1CO[C@H]2[C@@H]1OC[C@@H]2NC(=O)NC1CCCCC1 [Example 40, 1-[(3S,3aR,6S,6aS)-6-(2-Cyano-pyridin-3-yloxy)-hexahydro-furo[3,2-b]furan-3-yl]-3-cyclohexyl-urea]
102	COC(=O)c1cccc(NC(=O)N[C@H]2CO[C@H]3[C@@H]2OC[C@@H]3/C=C\c2ccsc2)c1 [Example 343, 3-{3-[(3S,3aR,6S,6aR)-6-((Z)-2-Thiophen-3-yl-vinyl)-hexahydro-furo[3,2-b]furan-3-yl]-ureido}-benzoic acid methyl ester]
4	O=C(NC1CCCCC1)N[C@H]1CO[C@H]2[C@@H]1OC[C@@H]2Oc1ccc(N2CCOCC2)nc1 [Example 73, 1-Cyclohexyl-3-[(3S,3aR,6S,6aS)-6-(6-morpholin-4-yl-pyridin-3-yloxy)-hexahydro-furo[3,2-b]furan-3-yl]-urea]
3	Cc1ncccc1O[C@H]1CO[C@H]2[C@@H]1OC[C@@H]2NC(=O)NC1CCC(C)CC1 (stereo partly drawn) [Example 257, 1-(4-Methyl-cyclohexyl)-3-[(3S,3aR,6S,6aS)-6-(2-methyl-pyridin-3-yloxy)-hexahydro-furo[3,2-b]furan-3-yl]-urea]
95	O=C(Nc1cccc(F)c1)N[C@H]1CO[C@H]2[C@@H]1OC[C@@H]2/C=C\c1ccccc1 [Example 329, 1-(3-Fluoro-phenyl)-3-[(3S,3aR,6S,6aR)-6-((Z)-styryl)-hexahydro-furo[3,2-b]furan-3-yl]-urea]
145	Cc1cccc(CNC(=O)NC2COC3C(CCc4ccsc4)COC23)c1 [Example 365, 1-(3-Methyl-benzyl)-3-[(3S,3aR,6R)-6-((S)-2-thiophen-3-yl-ethyl)-hexa-hydro-furo[3,2-b]furan-3-yl]-urea]
2	Cc1ncccc1O[C@H]1CO[C@H]2[C@@H]1OC[C@@H]2NC(=O)N[C@H]1CC[C@H](C)CC1 [Example 267, 1-(trans-4-Methyl-cyclohexyl)-3-[(3S,3aR,6S,6aS)-6-(2-methyl-pyridin-3-yloxy)-hexahydro-furo[3,2-b]furan-3-yl]-urea]
11	O=C(Nc1ccc(OC(F)(F)F)cc1)N[C@H]1CO[C@H]2[C@@H]1OC[C@@H]2/C=C\c1ccsc1 [Example 345, 1-[(3S,3aR,6S,6aR)-6-((Z)-2-Thiophen-3-yl-vinyl)-hexahydro-furo[3,2-b]furan-3-yl]-3-(4-trifluoromethoxy-phenyl)-urea]
81	O=C(Nc1ccc(OCc2ccccc2)cc1)NC1COC2C(C=Cc3ccccc3)COC12 [Example 324, 1-(4-Benzyloxy-phenyl)-3-[(3S,3aR,6R)-6-((S)-(Z)-styryl)-hexa-hydro-furo[3,2-b]furan-3-yl]-urea]
6	COc1ccc([C@@H](C)NC(=O)N[C@H]2CO[C@H]3[C@@H]2OC[C@@H]3Oc2ccc(F)cc2)cc1 [Example 168, 1-[(3S,3aR,6S,6aS)-6-(4-Fluoro-phenoxy)-hexahydro-furo[3,2-b]furan-3-yl]-3-[(R)-1-(4-methoxy-phenyl)-ethyl]-urea]
